Data from patent publication US10294202B2, “Pyrrolidinones as herbicides” (FMC Corporation, priority 2013, dated 2019).

How the values were obtained:
Assay in all cases: Test D pre-/postemergence herbicide test
[1] = tested on: oilseed rape; assay type: in vivo, Brassica napus; conditions: for Plant response rating: Postemergence, Oilseed Rape, scale 0 to 100; for Plant response rating, Oilseed Rape: Preemergence, scale 0 to 100 (0 no effect, 100 complete control)
From the text: (§1) Seeds of plant species selected from bluegrass (annual bluegrass, Poa annua), blackgrass (Alopecurus myosuroides), canarygrass (littleseed canarygrass, Phalaris minor), chickweed (common chickweed, Stellaria media), galium (catchweed bedstraw, Galium aparine), bromegrass, downy (downy bromegrass, Bromus tectorum), field poppy (Papaver rhoeas), field violet (Viola arvensis), foxtail, green (green foxtail, Setaria viridis), deadnettle (henbit deadnettle, Lamium amplexicaule), ryegrass, Italian (Italian ryegrass, Lolium multiflorum), kochia (Kochia scoparia), lambsquarters (Chenopodium album), oilseed rape (Brassica napus), pigweed (Amaranthus retroflexus), chamomile (scentless chamomile, Matricaria inodora), Russian thistle (Salsola kali), speedwell (bird's-eye speedwell, Veronica persica), barley, spring (spring barley, Hordeum vulgare), wheat, spring (spring wheat, Triticum aestivum), buckwheat, wild (wild buckwheat, Polygonum convolvulus), mustard, wild (wild mustard, Sinapis arvensis), oat, wild (wild oat, Avena fatua), radish, wild (wild radish, Raphanus raphanistrum), […]), barley, winter (winter barley, Hordeum vulgare), and wheat, winter (winter wheat, Triticum aestivum) were planted into a silt loam soil and treated preemergence with test chemicals formulated in a non-phytotoxic solvent mixture which included a surfactant. At the same time, these species were planted in pots containing Redi-Earth® planting medium (Scotts Company, 14111 Scottslawn Road, Marysville, Ohio 43041) comprising spaghnum peat moss, vermiculite, wetting agent and starter nutrients and treated with postemergence applications of the test chemicals formulated in the same manner. Plants ranged in height from 2 to 18 cm (1- to 4-leaf stage). Treated plants and controls were maintained in a controlled growth environment for 7 to 21 days after which time all species were compared to controls and visually evaluated. Plant response ratings, summarized in Table D, are based on a scale of 0 to 100 where 0 is no effect and 100 is complete control. A dash (-) response means no test result.

[2] = tested on: pigweed; assay type: in vivo, Amaranthus retroflexus; conditions: for Plant response rating: Postemergence, Pigweed, scale 0 to 100; for Plant response rating, Pigweed: Preemergence, scale 0 to 100 (0 no effect, 100 complete control)
From the text: as §1

[3] = tested on: barley, spring; assay type: in vivo, Hordeum vulgare; conditions: for Plant response rating: Barley, Spring, scale 0 to 100; for Plant response rating, Barley, Spring: scale 0 to 100 (0 no effect, 100 complete control)
From the text: as §1

[4] = tested on: barley, winter; assay type: in vivo, Hordeum vulgare; conditions: for Plant response rating: Barley, Winter, scale 0 to 100; for Plant response rating, Barley, Winter: scale 0 to 100 (0 no effect, 100 complete control)
From the text: as §1

[5] = tested on: foxtail, green; assay type: in vivo, Setaria viridis; conditions: for Plant response rating: Foxtail, Green, scale 0 to 100; for Plant response rating, Foxtail, Green: scale 0 to 100 (0 no effect, 100 complete control)
From the text: as §1

[6] = tested on: speedwell; assay type: in vivo, Veronica persica; conditions: for Plant response rating: Postemergence, Speedwell, scale 0 to 100; for Plant response rating, Speedwell: Preemergence, scale 0 to 100 (0 no effect, 100 complete control)
From the text: as §1

[7] = tested on: deadnettle; assay type: in vivo, Lamium amplexicaule; conditions: for Plant response rating: Deadnettle, scale 0 to 100; for Plant response rating, Deadnettle: scale 0 to 100 (0 no effect, 100 complete control)
From the text: as §1

O=C1NCC(c2ccc(F)c(F)c2)C1C(=O)Nc1ccccc1C(F)(F)F (racemic) [Compound 6]
Plant response rating ([1]; 16 g ai/ha): 10
Plant response rating ([1]; 31 g ai/ha): 10
Plant response rating ([1]; 62 g ai/ha): 10
Plant response rating ([1]; 125 g ai/ha): 15
Plant response rating ([1]; 250 g ai/ha): 20
Plant response rating, Oilseed Rape ([1]; 62 g ai/ha): 0
Plant response rating, Oilseed Rape ([1]; 125 g ai/ha): 10
Plant response rating, Oilseed Rape ([1]; 16 g ai/ha): 0
Plant response rating, Oilseed Rape ([1]; 31 g ai/ha): 0
Plant response rating, Oilseed Rape ([1]; 250 g ai/ha): 20
Plant response rating ([2]; 16 g ai/ha): 0
Plant response rating ([2]; 31 g ai/ha): 10
Plant response rating ([2]; 62 g ai/ha): 10
Plant response rating ([2]; 125 g ai/ha): 20
Plant response rating ([2]; 250 g ai/ha): 20
Plant response rating, Pigweed ([2]; 62 g ai/ha): 0
Plant response rating, Pigweed ([2]; 125 g ai/ha): 0
Plant response rating, Pigweed ([2]; 16 g ai/ha): 0
Plant response rating, Pigweed ([2]; 31 g ai/ha): 0
Plant response rating, Pigweed ([2]; 250 g ai/ha): 0
Plant response rating ([3]; Postemergence, 16 g ai/ha): 0
Plant response rating ([3]; Postemergence, 31 g ai/ha): 0
Plant response rating ([3]; Postemergence, 62 g ai/ha): 0
Plant response rating ([3]; Postemergence, 125 g ai/ha): 0
Plant response rating ([3]; Postemergence, 250 g ai/ha): 0
Plant response rating, Barley, Spring ([3]; Preemergence, 62 g ai/ha): 0
Plant response rating, Barley, Spring ([3]; Preemergence, 16 g ai/ha): 0
Plant response rating, Barley, Spring ([3]; Preemergence, 31 g ai/ha): 0
Plant response rating ([3]; Preemergence, 125 g ai/ha): 0
Plant response rating ([3]; Preemergence, 250 g ai/ha): 10
Plant response rating ([4]; Postemergence, 16 g ai/ha): 0
Plant response rating ([4]; Postemergence, 31 g ai/ha): 0
Plant response rating ([4]; Postemergence, 62 g ai/ha): 0
Plant response rating ([4]; Postemergence, 125 g ai/ha): 0
Plant response rating ([4]; Postemergence, 250 g ai/ha): 0
Plant response rating, Barley, Winter ([4]; Preemergence, 62 g ai/ha): 0
Plant response rating, Barley, Winter ([4]; Preemergence, 16 g ai/ha): 0
Plant response rating, Barley, Winter ([4]; Preemergence, 31 g ai/ha): 0
Plant response rating ([4]; Preemergence, 125 g ai/ha): 0
Plant response rating ([4]; Preemergence, 250 g ai/ha): 20
Plant response rating ([5]; Postemergence, 16 g ai/ha): 0
Plant response rating ([5]; Postemergence, 31 g ai/ha): 0
Plant response rating ([5]; Postemergence, 62 g ai/ha): 0
Plant response rating ([5]; Postemergence, 125 g ai/ha): 0
Plant response rating ([5]; Postemergence, 250 g ai/ha): 20
Plant response rating, Foxtail, Green ([5]; Preemergence, 62 g ai/ha): 0
Plant response rating, Foxtail, Green ([5]; Preemergence, 16 g ai/ha): 0
Plant response rating, Foxtail, Green ([5]; Preemergence, 31 g ai/ha): 0
Plant response rating ([5]; Preemergence, 125 g ai/ha): 0
Plant response rating ([5]; Preemergence, 250 g ai/ha): 10
Plant response rating ([6]; 16 g ai/ha): 0
Plant response rating ([6]; 31 g ai/ha): 0
Plant response rating ([6]; 62 g ai/ha): 0
Plant response rating ([6]; 125 g ai/ha): 0
Plant response rating ([6]; 250 g ai/ha): 15
Plant response rating, Speedwell ([6]; 62 g ai/ha): 10
Plant response rating, Speedwell ([6]; 125 g ai/ha): 30
Plant response rating, Speedwell ([6]; 16 g ai/ha): 0
Plant response rating, Speedwell ([6]; 31 g ai/ha): 10
Plant response rating, Speedwell ([6]; 250 g ai/ha): 50
Plant response rating ([7]; Postemergence, 16 g ai/ha): 0
Plant response rating ([7]; Postemergence, 31 g ai/ha): 0
Plant response rating ([7]; Postemergence, 62 g ai/ha): 0
Plant response rating ([7]; Postemergence, 125 g ai/ha): 10
Plant response rating ([7]; Postemergence, 250 g ai/ha): 10
Plant response rating, Deadnettle ([7]; Preemergence, 62 g ai/ha): 0
Plant response rating, Deadnettle ([7]; Preemergence, 16 g ai/ha): 0
Plant response rating, Deadnettle ([7]; Preemergence, 31 g ai/ha): 0
Plant response rating ([7]; Preemergence, 125 g ai/ha): 40
Plant response rating ([7]; Preemergence, 250 g ai/ha): 40

O=C1NCC(c2ccc(F)c(C(F)(F)F)c2)C1C(=O)Nc1cccc(F)c1F (racemic) [Compound 77]
Plant response rating, Oilseed Rape ([1]; 62 g ai/ha): 5
Plant response rating, Oilseed Rape ([1]; 125 g ai/ha): 5
Plant response rating, Oilseed Rape ([1]; 31 g ai/ha): 5
Plant response rating, Oilseed Rape ([1]; 250 g ai/ha): 5
Plant response rating, Pigweed ([2]; 62 g ai/ha): 70
Plant response rating, Pigweed ([2]; 125 g ai/ha): 80
Plant response rating, Pigweed ([2]; 31 g ai/ha): 25
Plant response rating, Pigweed ([2]; 250 g ai/ha): 80
Plant response rating, Barley, Spring ([3]; Preemergence, 62 g ai/ha): 5
Plant response rating, Barley, Spring ([3]; Preemergence, 31 g ai/ha): 5
Plant response rating ([3]; Preemergence, 125 g ai/ha): 25
Plant response rating ([3]; Preemergence, 250 g ai/ha): 25
Plant response rating, Barley, Winter ([4]; Preemergence, 62 g ai/ha): 0
Plant response rating, Barley, Winter ([4]; Preemergence, 31 g ai/ha): 0
Plant response rating ([4]; Preemergence, 125 g ai/ha): 45
Plant response rating ([4]; Preemergence, 250 g ai/ha): 55
Plant response rating, Foxtail, Green ([5]; Preemergence, 62 g ai/ha): 80
Plant response rating, Foxtail, Green ([5]; Preemergence, 31 g ai/ha): 15
Plant response rating ([5]; Preemergence, 125 g ai/ha): 70
Plant response rating ([5]; Preemergence, 250 g ai/ha): 85
Plant response rating, Speedwell ([6]; 62 g ai/ha): 25
Plant response rating, Speedwell ([6]; 125 g ai/ha): 35
Plant response rating, Speedwell ([6]; 31 g ai/ha): 20
Plant response rating, Speedwell ([6]; 250 g ai/ha): 100
Plant response rating, Deadnettle ([7]; Preemergence, 62 g ai/ha): 65
Plant response rating, Deadnettle ([7]; Preemergence, 31 g ai/ha): 15
Plant response rating ([7]; Preemergence, 125 g ai/ha): 60
Plant response rating ([7]; Preemergence, 250 g ai/ha): 75

O=C1NCC(c2ccc(C(F)(F)F)cc2)C1C(=O)Nc1ccccc1F (stereo not shown) [Compound 231]
Plant response rating ([1]; 31 g ai/ha): 15
Plant response rating ([1]; 62 g ai/ha): 10
Plant response rating ([1]; 125 g ai/ha): 20
Plant response rating ([1]; 250 g ai/ha): 40
Plant response rating, Oilseed Rape ([1]; 62 g ai/ha): 0
Plant response rating, Oilseed Rape ([1]; 125 g ai/ha): 45
Plant response rating, Oilseed Rape ([1]; 31 g ai/ha): 0
Plant response rating, Oilseed Rape ([1]; 250 g ai/ha): 55
Plant response rating ([2]; 31 g ai/ha): 20
Plant response rating ([2]; 62 g ai/ha): 35
Plant response rating ([2]; 125 g ai/ha): 35
Plant response rating ([2]; 250 g ai/ha): 45
Plant response rating, Pigweed ([2]; 62 g ai/ha): 50
Plant response rating, Pigweed ([2]; 125 g ai/ha): 60
Plant response rating, Pigweed ([2]; 31 g ai/ha): 50
Plant response rating, Pigweed ([2]; 250 g ai/ha): 80
Plant response rating ([3]; Postemergence, 31 g ai/ha): 0
Plant response rating ([3]; Postemergence, 62 g ai/ha): 0
Plant response rating ([3]; Postemergence, 125 g ai/ha): 0
Plant response rating ([3]; Postemergence, 250 g ai/ha): 0
Plant response rating, Barley, Spring ([3]; Preemergence, 62 g ai/ha): 5
Plant response rating, Barley, Spring ([3]; Preemergence, 125 g ai/ha): 5
Plant response rating, Barley, Spring ([3]; Preemergence, 31 g ai/ha): 0
Plant response rating ([3]; Preemergence, 250 g ai/ha): 35
Plant response rating ([4]; Postemergence, 31 g ai/ha): 0
Plant response rating ([4]; Postemergence, 62 g ai/ha): 0
Plant response rating ([4]; Postemergence, 125 g ai/ha): 0
Plant response rating ([4]; Postemergence, 250 g ai/ha): 0
Plant response rating, Barley, Winter ([4]; Preemergence, 62 g ai/ha): 0
Plant response rating, Barley, Winter ([4]; Preemergence, 125 g ai/ha): 0
Plant response rating, Barley, Winter ([4]; Preemergence, 31 g ai/ha): 0
Plant response rating ([4]; Preemergence, 250 g ai/ha): 20
Plant response rating ([5]; Postemergence, 31 g ai/ha): 10
Plant response rating ([5]; Postemergence, 62 g ai/ha): 65
Plant response rating ([5]; Postemergence, 125 g ai/ha): 70
Plant response rating ([5]; Postemergence, 250 g ai/ha): 70
Plant response rating, Foxtail, Green ([5]; Preemergence, 62 g ai/ha): 80
Plant response rating, Foxtail, Green ([5]; Preemergence, 125 g ai/ha): 95
Plant response rating, Foxtail, Green ([5]; Preemergence, 31 g ai/ha): 45
Plant response rating ([5]; Preemergence, 250 g ai/ha): 98
Plant response rating ([6]; 31 g ai/ha): 60
Plant response rating ([6]; 62 g ai/ha): 70
Plant response rating ([6]; 125 g ai/ha): 75
Plant response rating ([6]; 250 g ai/ha): 75
Plant response rating, Speedwell ([6]; 62 g ai/ha): 80
Plant response rating, Speedwell ([6]; 125 g ai/ha): 100
Plant response rating, Speedwell ([6]; 31 g ai/ha): 75
Plant response rating, Speedwell ([6]; 250 g ai/ha): 100
Plant response rating ([7]; Postemergence, 31 g ai/ha): 35
Plant response rating ([7]; Postemergence, 62 g ai/ha): 70
Plant response rating ([7]; Postemergence, 125 g ai/ha): 35
Plant response rating ([7]; Postemergence, 250 g ai/ha): 70
Plant response rating, Deadnettle ([7]; Preemergence, 62 g ai/ha): 75
Plant response rating, Deadnettle ([7]; Preemergence, 125 g ai/ha): 60
Plant response rating, Deadnettle ([7]; Preemergence, 31 g ai/ha): 35
Plant response rating ([7]; Preemergence, 250 g ai/ha): 85
